Assay results: publication PMC10564737, “Structure-based design of a phosphotyrosine-masked covalent ligand targeting the E3 ligase SOCS2” (Nature Communications, 2023)
Where “and” joins values, the source holds several entries; their conditions need not be identical. Identical values can stand only once.

Target: T1, SBC2 (Homo sapiens, UniProt O14508)
T1 construct: SOCS2 (amino acids 32–198); His6 (N, cleaved yes); made in house; host or cells: E. coli BL21(DE3)
Experiment: Covalent fluorescence polarization (FP) probe displacement assay
Assay type: binding
Excerpt: With the specific covalent modification of Cys111 established, we decided to fully characterize MN551 as a covalent SOCS2 inhibitor. […] (Fig. 2g, h, Supplementary Fig. 9). Due to the covalent nature of the competing inhibitor, a time-dependent reduction in the fraction of protein-bound probe is observed. […] This value illustrates reasonable specificity for a covalent inhibitor, with nonetheless scope for future optimization. In addition to characterizing the kinetic covalency parameters, we have also assessed the stability of the MN551 by monitoring its reactivity (half-life >70 min) with reduced glutathione (GSH) (Supplementary Fig. 10)[35].
To monitor the SBC2-ligand binding kinetics we designed a fluorescein-labeled small-molecule probe - compound 26. The fluorescence polarization (anisotropy) of a threefold serial dilution of 50 µM SBC2 in 10 nM of the probe in 100 mM HEPES pH 7.5, 50 mM NaCl, 0.5 mM TCEP, 2% DMSO was measured to determine the KL (Supplementary Fig. 9A) (BMG Labtech PHERAstar – firmware v1.33). Protein titration and the curves were fitted using GraphPad Prism 9, using one-site fitting models to determine the probe binding constant, KL. Samples were run in triplicate in 384 well plates, using a total volume per well of 16 μL. The bound fraction of the probe is measure using the equation:1 Fb=Af−A/Af−Ab Where,
A time-dependent reduction in probe anisotropy were measured for a 2-fold serial dilution of […] compound MN551 in 10 nM probe +300 μM SBC2. To determine the initial reversible binding affinity, the initial bound fraction of the probe at time = 0, Fbo (the y-intercept in Fb v/s Time plot, Supplementary Fig. 9B) was plotted against MN551 concentration, and the obtained IC50 is then converted to Ki (Supplementary Fig. 9C)[17]. The slope from Fb versus time graph when divided by Fbo gives rate of covalency, kobs. A plot of kobs v/s MN551 concentration using Michaelis–Menten model of GraphPad Prism 9, provides the parameters kinact (maximum potential rate of inactivation) and KI (concentration of MN551 at which kobs = kinact/2) (Supplementary Fig. 9D, E).
The observed first-order rate constant, kobs is related to KI and kinact by the equation:2 kobs=kinactI/KI+I
At [I]«[KI] the above equation is converted to3 […]
The slope from the plot of kobs against concentration of MN551 gives us the covalent efficiency parameter kinact/KI (Supp Fig. 9F)[30],[33].

[1] = MN551 260.308 nM, Cycle 12 (55 min)
[2] = MN551 260.308 nM, Cycle 19 (90 min), n=1
[3] = MN551 364.432 nM, Cycle 6 (25 min)
[4] = MN551 364.432 nM, Cycle 12 (55 min)
[5] = MN551 364.432 nM, Cycle 19 (90 min), n=1
[6] = MN551 510.204 nM, Cycle 6 (25 min)
[7] = MN551 510.204 nM, Cycle 12 (55 min)
[8] = MN551 510.204 nM, Cycle 19 (90 min), n=1
[9] = MN551 714.286 nM, Cycle 6 (25 min)
[10] = MN551 714.286 nM, Cycle 12 (55 min)
[11] = MN551 714.286 nM, Cycle 19 (90 min), n=1
[12] = MN551 781.25 nM, Cycle 6 (25 min)
[13] = MN551 1000 nM, Cycle 6 (25 min)
[14] = MN551 1000 nM, Cycle 12 (55 min)
[15] = MN551 1000 nM, Cycle 19 (90 min), n=1

T1 sequence (O14508 32-198): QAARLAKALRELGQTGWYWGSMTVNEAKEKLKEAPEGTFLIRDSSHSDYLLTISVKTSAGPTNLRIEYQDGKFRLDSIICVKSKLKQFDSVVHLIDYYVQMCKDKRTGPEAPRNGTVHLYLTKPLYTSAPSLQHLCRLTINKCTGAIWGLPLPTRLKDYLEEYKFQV
T1 sequence (Q15370 1-104 partner limits assumed): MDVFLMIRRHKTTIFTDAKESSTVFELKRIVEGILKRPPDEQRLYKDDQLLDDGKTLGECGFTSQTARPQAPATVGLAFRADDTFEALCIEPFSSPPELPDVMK
T1 sequence (Q15369 17-112 partner limits assumed): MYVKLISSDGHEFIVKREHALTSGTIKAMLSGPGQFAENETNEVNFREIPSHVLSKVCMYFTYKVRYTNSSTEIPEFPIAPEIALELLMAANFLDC

O=C(CCl)Nc1cccc(CNC(=O)[C@H](Cc2ccc(OP(=O)(O)O)cc2)NC(=O)Cc2ccc(F)cc2)c1 [MN551]
Fb (MN551 260.308 nM, Cycle 6 (25 min)): 0.9065 and 0.9342 and 0.9573
Anisotropy [1]: 262.5 and 259.9 and 257.4
Fb [1]: 0.8574 and 0.8591 and 0.8311
Anisotropy data 485,520,520 [2]: 254.9 and 255 and 252.4
Anisotropy normalised (0 nM MN551 = 1, free probe = 0) [2]: 0.8373 and 0.852 and 0.8299
Anisotropy normalised (0 nM MN551 = 1, free probe = 0) (MN551 260.308 nM, Cycle 20 (95 min), n=1): 0.8182 and 0.7955 and 0.8068
Anisotropy based on Raw Data (485) (MN551 364.432 nM, Cycle 7 (30 min)): 266.3 and 261.1 and 263
Normalised anisotropy (0 nM MN551 = 1, free probe = 0) (MN551 364.432 nM, Cycle 13 (60 min), n=1): 0.8082 and 0.788 and 0.7925
Normalised anisotropy (0 nM MN551 = 1, free probe = 0) (MN551 364.432 nM, Cycle 14 (65 min), n=1): 0.8132 and 0.8023 and 0.7716
Normalised anisotropy (0 nM MN551 = 1, free probe = 0) (MN551 364.432 nM, Cycle 15 (70 min), n=1): 0.8109 and 0.8027 and 0.7817
Fb, fraction bound (MN551 364.432 nM, Cycle 3 (10 min)): 0.8953 and 0.9033 and 0.8725
Anisotropy data 485,520,520 [3]: 261.2 and 252.2 and 253.6
Fb [3]: 0.8702 and 0.8783 and 0.9647
Anisotropy [4]: 258 and 255.4 and 255.3
Fb [4]: 0.8155 and 0.8159 and 0.8109
Anisotropy data 485,520,520 [5]: 251.5 and 248.8 and 245.6
Anisotropy normalised (0 nM MN551 = 1, free probe = 0) [5]: 0.8046 and 0.79 and 0.7638
Anisotropy normalised (0 nM MN551 = 1, free probe = 0) (MN551 364.432 nM, Cycle 20 (95 min), n=1): 0.7592 and 0.7548 and 0.7585
Anisotropy based on Raw Data (485) (MN551 390.625 nM, Cycle 7 (30 min)): 269.8 and 271.4 and 267.4
Fb, fraction bound (MN551 390.625 nM, Cycle 2 (5 min)): 0.9917 and 0.9704 and 0.9496
Fb, fraction bound (MN551 390.625 nM, Cycle 3 (10 min)): 0.9862 and 0.9672 and 0.9437
Anisotropy (MN551 390.625 nM, Cycle 12 (55 min)): 270.6 and 267.1 and 265.1
Anisotropy based on Raw Data (485) (MN551 510.204 nM, Cycle 7 (30 min)): 261.7 and 259.3 and 261
Anisotropy based on Raw Data (485) (MN551 510.204 nM, Cycle 8 (35 min)): 261.5 and 258.9 and 258.8
Normalised anisotropy (0 nM MN551 = 1, free probe = 0) (MN551 510.204 nM, Cycle 13 (60 min), n=1): 0.7484 and 0.7226 and 0.7442
Normalised anisotropy (0 nM MN551 = 1, free probe = 0) (MN551 510.204 nM, Cycle 14 (65 min), n=1): 0.7755 and 0.7213 and 0.7092
Normalised anisotropy (0 nM MN551 = 1, free probe = 0) (MN551 510.204 nM, Cycle 15 (70 min), n=1): 0.7476 and 0.7154 and 0.7087
Fb, fraction bound (MN551 510.204 nM, Cycle 3 (10 min)): 0.8721 and 0.8651 and 0.8107
Anisotropy data 485,520,520 [6]: 257.3 and 244.3 and 249.4
Fb [6]: 0.8302 and 0.8538 and 0.9038
Anisotropy [7]: 252.2 and 248.3 and 248.9
Fb [7]: 0.7614 and 0.7478 and 0.7495
Anisotropy data 485,520,520 [8]: 243.6 and 240.1 and 238.9
Anisotropy normalised (0 nM MN551 = 1, free probe = 0) [8]: 0.7286 and 0.703 and 0.6987
Anisotropy normalised (0 nM MN551 = 1, free probe = 0) (MN551 510.204 nM, Cycle 20 (95 min), n=1): 0.6867 and 0.6831 and 0.6676
Anisotropy based on Raw Data (485) (MN551 714.286 nM, Cycle 7 (30 min)): 257.5 and 256.2 and 255.9
Anisotropy based on Raw Data (485) (MN551 714.286 nM, Cycle 8 (35 min)): 256 and 254.7 and 255.3
Normalised anisotropy (0 nM MN551 = 1, free probe = 0) (MN551 714.286 nM, Cycle 14 (65 min), n=1): 0.7189 and 0.6657 and 0.6727
Normalised anisotropy (0 nM MN551 = 1, free probe = 0) (MN551 714.286 nM, Cycle 15 (70 min), n=1): 0.6832 and 0.6708 and 0.6558
Fb, fraction bound (MN551 714.286 nM, Cycle 3 (10 min)): 0.8072 and 0.8019 and 0.7869
Anisotropy data 485,520,520 [9]: 249.8 and 245.7 and 246.8
Fb [9]: 0.8082 and 0.8312 and 0.8793
Anisotropy [10]: 245.4 and 244 and 241.6
Fb [10]: 0.698 and 0.7066 and 0.6795
Fb (MN551 714.286 nM, Cycle 13 (60 min)): 0.6773 and 0.6691 and 0.6737
Anisotropy data 485,520,520 [11]: 235.3 and 235.8 and 229.2
Anisotropy normalised (0 nM MN551 = 1, free probe = 0) [11]: 0.6487 and 0.66 and 0.6045
Anisotropy normalised (0 nM MN551 = 1, free probe = 0) (MN551 714.286 nM, Cycle 20 (95 min), n=1): 0.6238 and 0.6124 and 0.601
Anisotropy based on Raw Data (485) (MN551 781.25 nM, Cycle 7 (30 min)): 264.8 and 264.3 and 257.5
Fb, fraction bound (MN551 781.25 nM, Cycle 2 (5 min)): 0.8861 and 0.914 and 0.9072
Fb, fraction bound (MN551 781.25 nM, Cycle 3 (10 min)): 0.8842 and 0.8716 and 0.861
Anisotropy data 485,520,520 [12]: 261.7 and 267.5 and 267.1
Fb [12]: 0.8257 and 0.8639
Anisotropy (MN551 781.25 nM, Cycle 12 (55 min)): 254.6 and 253.4 and 251.5
Anisotropy based on Raw Data (485) (MN551 1000 nM, Cycle 7 (30 min)): 254.7 and 249.8 and 251.7
Anisotropy based on Raw Data (485) (MN551 1000 nM, Cycle 8 (35 min)): 251.7 and 250.9 and 246
Normalised anisotropy (0 nM MN551 = 1, free probe = 0) (MN551 1000 nM, Cycle 14 (65 min), n=1): 0.5934 and 0.6045 and 0.5749
Normalised anisotropy (0 nM MN551 = 1, free probe = 0) (MN551 1000 nM, Cycle 15 (70 min), n=1): 0.5741 and 0.5664 and 0.5538
Fb, fraction bound (MN551 1000 nM, Cycle 3 (10 min)): 0.7627 and 0.7851 and 0.7345
Anisotropy data 485,520,520 [13]: 247.9 and 241.8 and 240.6
Fb [13]: 0.7763 and 0.812
Anisotropy [14]: 234.4 and 236.4 and 233.2
Fb [14]: 0.5955 and 0.6337 and 0.5988
Fb (MN551 1000 nM, Cycle 13 (60 min)): 0.5631 and 0.5917 and 0.6014
Anisotropy data 485,520,520 [15]: 220.4 and 223.8 and 219.7
Anisotropy normalised (0 nM MN551 = 1, free probe = 0) [15]: 0.5053 and 0.54 and 0.5121
Anisotropy normalised (0 nM MN551 = 1, free probe = 0) (MN551 1000 nM, Cycle 20 (95 min), n=1): 0.4971 and 0.4767 and 0.4821
